Experimental data published in patent US10344039B2, “Macrocyclic spirocarbamate derivatives as factor XIa inhibitors, pharmaceutically acceptable compositions and their use” (MERCK SHARP & DOHME CORP., priority 2015, dated 2019).

Columns and labels:
[1] = biological target: T1, purified human Factor XIa (Homo sapiens, UniProt P03951); assay: Factor XIa Assay; assay type: biochemical; conditions: purified human Factor XIa 40 pM; substrate Z-Gly-Pro-Arg-AFC 100 μM; 50 mM HEPES pH 7.4; read-out: Hu FXIa Ki
T1 construct: purified human Factor XIa; purchased Sekisui Diagnostics
T1 sequence (P03951 388-625 limits assumed): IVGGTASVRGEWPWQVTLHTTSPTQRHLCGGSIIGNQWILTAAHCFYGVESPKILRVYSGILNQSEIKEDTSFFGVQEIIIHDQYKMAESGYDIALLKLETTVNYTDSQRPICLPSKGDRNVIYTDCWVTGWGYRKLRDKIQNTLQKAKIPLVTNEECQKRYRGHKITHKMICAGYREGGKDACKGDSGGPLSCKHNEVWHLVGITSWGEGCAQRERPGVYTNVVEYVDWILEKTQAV
T1 sequence (P03951 19-387 partner limits assumed): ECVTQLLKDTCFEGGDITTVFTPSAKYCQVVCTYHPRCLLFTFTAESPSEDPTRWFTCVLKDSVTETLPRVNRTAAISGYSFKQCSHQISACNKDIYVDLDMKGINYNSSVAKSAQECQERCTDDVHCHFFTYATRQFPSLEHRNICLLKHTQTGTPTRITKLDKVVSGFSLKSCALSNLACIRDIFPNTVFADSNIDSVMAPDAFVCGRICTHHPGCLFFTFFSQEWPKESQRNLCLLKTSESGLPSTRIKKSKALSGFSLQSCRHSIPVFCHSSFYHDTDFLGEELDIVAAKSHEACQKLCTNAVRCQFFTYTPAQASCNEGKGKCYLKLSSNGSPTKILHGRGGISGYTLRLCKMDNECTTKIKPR
Protocol: The effectiveness of a compound of the present invention as an inhibitor of Coagulation Factor XIa can be determined using a relevant purified serine protease, and an appropriate synthetic substrate. The rate of hydrolysis of the chromogenic or fluorogenic substrate by the relevant serine protease was measured both in the absence and presence of compounds of the present invention. Assays were conducted at room temperature or at 37° C. […] A decrease in the rate of fluorescence change in the presence of inhibitor is indicative of enzyme inhibition. Such methods are known to one skilled in the art. The results of this assay are expressed as the inhibitory constant, Ki.
Factor XIa determinations were made in 50 mM HEPES buffer at pH 7.4 containing 150 mM NaCl, 5 mM CaCl2, and 0.1% PEG 8000 (polyethylene glycol; JT Baker or Fisher Scientific). Determinations were made using purified human Factor XIa at a final concentration of 40 pM (Sekisui Diagnostics) and he synthetic substrate, Z-Gly-Pro-Arg-AFC, TFA salt (Sigma #C0980) at a concentration of 100 μM.
Activity assays were performed by diluting a stock solution of substrate at least tenfold to a final concentration ≤0.1 Km into a solution containing enzyme or enzyme equilibrated with inhibitor. Times required to achieve equilibration between enzyme and inhibitor were determined in control experiments. Initial velocities of product formation in the absence (Vo) or presence of inhibitor (Vi) were measured. Assuming competitive inhibition, and that unity is negligible compared Km/[S], [I]/e, and [I]/e (where [S], [I], and e respectively represent the total concentrations, of substrate, inhibitor and enzyme), the equilibrium constant (Ki) for dissociation of the inhibitor from the enzyme can be obtained from the dependence of Vo/Vi on [I] shown in the following equation. Vo/Vi=1+[I]/Ki
The activities shown by this assay indicate that the compounds of the invention may be therapeutically useful for treating or preventing various cardiovascular and/or cerebrovascular thromboembolic conditions in patients suffering from unstable angina, acute coronary syndrome, refractory angina, myocardial infarction, transient ischemic attacks, atrial fibrillation, stroke such as thrombotic stroke or embolic stroke, venous thrombosis, coronary and cerebral arterial thrombosis, cerebral and pulmonary embolism, atherosclerosis, deep vein thrombosis, disseminated intravascular coagulation, and reocclusion or restenosis of recanalized vessels. The Ki values measured for each of the example compounds of the invention using this assay are reported in the tables above (as “Hu FXIa Ki (nM)”).

[2] = biological target: T2, purified Human plasma kallikrein (Homo sapiens, UniProt P03952); assay: Kallikrein Assay; assay type: biochemical; conditions: purified Human plasma kallikrein 0.5 nM; substrate Acetyl-K-P-R-AFC; 50 mM HEPES pH 7.4; Ki from IC50 by Cheng Prusoff equation; read-out: Hu P. Kallikrein
T2 construct: yields a heavy chain (371 amino acids) and a light chain (248 amino acids); purchased Enzyme Research Laboratories
T2 sequence (P03952 391-638 limits assumed): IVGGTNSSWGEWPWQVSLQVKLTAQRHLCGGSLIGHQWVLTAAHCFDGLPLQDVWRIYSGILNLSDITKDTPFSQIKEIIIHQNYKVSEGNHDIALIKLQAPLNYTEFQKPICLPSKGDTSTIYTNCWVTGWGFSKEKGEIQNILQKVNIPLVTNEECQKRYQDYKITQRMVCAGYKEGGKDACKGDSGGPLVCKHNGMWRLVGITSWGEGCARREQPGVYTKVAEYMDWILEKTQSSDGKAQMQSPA
T2 sequence (P03952 20-390 partner limits assumed): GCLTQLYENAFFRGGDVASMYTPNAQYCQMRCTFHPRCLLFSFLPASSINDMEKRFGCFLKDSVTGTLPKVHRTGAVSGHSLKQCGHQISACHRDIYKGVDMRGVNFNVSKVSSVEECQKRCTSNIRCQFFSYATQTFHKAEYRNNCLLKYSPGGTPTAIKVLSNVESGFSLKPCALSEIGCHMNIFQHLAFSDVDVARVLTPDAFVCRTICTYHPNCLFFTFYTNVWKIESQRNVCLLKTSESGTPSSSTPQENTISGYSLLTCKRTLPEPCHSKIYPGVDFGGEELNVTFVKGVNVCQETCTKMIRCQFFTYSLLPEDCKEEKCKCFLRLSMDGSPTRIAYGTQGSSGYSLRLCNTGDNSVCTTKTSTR
Protocol: The effectiveness of a compound of the present invention as an inhibitor of Kallikrein can be determined using a relevant purified serine protease, and an appropriate synthetic substrate. The rate of hydrolysis of the chromogenic or fluorogenic substrate by the relevant serine protease was measured both in the absence and presence of compounds of the present invention. Assays were conducted at room temperature or at 37° C. […] A decrease in the rate of fluorescence change in the presence of inhibitor is indicative of enzyme inhibition. Such methods are known to one skilled in the art. The results of this assay are expressed as the inhibitory constant, Ki. Kallikrein determinations were made in 50 mM HEPES buffer at pH 7.4 containing 150 mM NaCl, 5 mM CaCl2, and 0.1% PEG 8000 (polyethylene glycol; Fisher Scientific). Determinations were made using purified Human plasma kallikrein at a final concentration of 0.5 nM (Enzyme Research Laboratories) and the synthetic substrate, Acetyl-K—P-R-AFC (Sigma # C6608) at a concentration of […]. Activity assays were performed by diluting a stock solution of substrate at least tenfold to a final concentration ≤0.2 Km into a solution containing enzyme or enzyme equilibrated with inhibitor. Times required to achieve equilibration between enzyme and inhibitor were determined in control experiments. The reactions were performed under linear progress curve conditions and fluorescence increase measured at 405 Ex/510 Em nm. Values were converted to percent inhibition of the control reaction (after subtracting 100% Inhibition value). IC50 was determined by inflection point from a four parameter logistic curve fit. Ki was calculated using the Cheng Prusoff equation, Ki=IC50/(1+([S]/Km)). The activities shown by this assay indicate that the compounds of the invention may be therapeutically useful for treating or preventing various cardiovascular and/or cerebrovascular thromboembolic conditions in patients suffering from unstable angina, acute coronary syndrome, refractory angina, myocardial infarction, transient ischemic attacks, atrial fibrillation, stroke such as thrombotic stroke or embolic stroke, venous thrombosis, coronary and cerebral arterial thrombosis, cerebral and pulmonary embolism, atherosclerosis, deep vein thrombosis, disseminated intravascular coagulation, and reocclusion or restenosis of recanalized vessels.

| SMILES | Ki [1] [nM] | Ki [2] [nM] |
| --- | --- | --- |
| COC(=O)Nc1ccc2c(c1)NC(=O)CCCCC(C(=O)N1CC[C@@]3(C1)OC(=O)Nc1ccc(Cl)c(F)c13)c1nc-2c[nH]1 (mixture of isomers) [Example 4, methyl ((Z)-9-((R)-6-chloro-5-fluoro-2-oxo-1,2-dihydrospiro[benzo[d][1,3]oxazine-4,3′-pyrrolidine]-1′-carbonyl)-4-oxo-1^1H-3-aza-1(4,2)-imidazola-2(1,2)-benzenacyclononaphane-2^4-yl)carbamate] | 0.86 | 1.24 |
| COC(=O)Nc1ccc2c(c1)NC(=O)CCCCC(C(=O)N1CCC[C@@]3(C1)OC(=O)Nc1ccc(Cl)c(F)c13)c1nc-2c(Cl)[nH]1 (mixture of isomers) [Example 8, methyl ((Z)-1^5-chloro-9-((R)-6-chloro-5-fluoro-2-oxo-1,2-dihydrospiro[benzo[d][1,3]oxazine-4,3′-piperidine]-1′-carbonyl)-4-oxo-1^1H-3-aza-1(4,2)-imidazola-2(1,2)-benzenacyclononaphane-2^4-yl)carbamate] | 0.25 | 0.56 |
| COC(=O)Nc1ccc2c(c1)NC(=O)CCCCC(C(=O)N1CCC[C@@]3(C1)OC(=O)Nc1ccc(Cl)c(F)c13)c1nc-2c(C)[nH]1 (mixture of isomers) [Example 12, methyl ((Z)-9-((R)-6-chloro-5-fluoro-2-oxo-1,2-dihydrospiro[benzo[d][1,3]oxazine-4,3′-piperidine]-1′-carbonyl)-1^5-methyl-4-oxo-1^1H-3-aza-1(4,2)-imidazola-2(1,2)-benzenacyclononaphane-2^4-yl)carbamate] | 2.7 | 1.28 |
| O=C1CCCCC(C(=O)N2CC[C@@]3(C2)OC(=O)Nc2ccc(Cl)c(F)c23)c2cc(ccn2)-c2cc3ccc(=O)[nH]c3cc2N1 (mixture of isomers) [Example 26, 3-((R)-6-chloro-5-fluoro-2-oxo-1,2-dihydrospiro[benzo[d][1,3]oxazine-4,3′-pyrrolidine]-1′-carbonyl)-1^1,1^2-dihydro-9-aza-1(6,7)-quinolina-2(4,2)-pyridinacyclononaphane-1^2,8-dione] | 3.93 | 1.22 |
| O=C1CCCCC(C(=O)N2CCC[C@@]3(C2)OC(=O)Nc2ccc(Cl)c(F)c23)c2cc(ccn2)-c2cc3ccc(=O)[nH]c3cc2N1 (mixture of isomers) [Example 27, 3-((R)-6-chloro-5-fluoro-2-oxo-1,2-dihydrospiro[benzo[d][1,3]oxazine-4,3′-piperidine]-1′-carbonyl)-1^1,1^2-dihydro-9-aza-1(6,7)-quinolina-2(4,2)-pyridinacyclononaphane-1^2,8-dione] | 13 | 0.6 |
| CCOC(=O)C1CCCCC(C(=O)N2CCC[C@@]3(C2)OC(=O)Nc2ccc(Cl)c(F)c23)c2nc(c[nH]2)-c2ccc(NC(=O)OC)cc2N1 (mixture of isomers) [Example 32, ethyl (Z)-9-((R)-6-chloro-5-fluoro-2-oxo-1,2-dihydrospiro[benzo[d][1,3]oxazine-4,3′-piperidine]-1′-carbonyl)-2^4-((methoxycarbonyl)amino)-1^1H-3-aza-1(4,2)-imidazola-2(1,2)-benzenacyclononaphane-4-carboxylate] | 4.94 | 15.5 |
| COC(=O)Nc1ccc2c(c1)NC(=O)CCCC[C@@H](C(=O)N1CC[C@@]3(C1)OC(=O)Nc1ccc(Cl)cc13)c1nc-2c[nH]1 (single isomer, unassigned) [Example 1a] | 2.37 | 1.99 |
| COC(=O)Nc1ccc2c(c1)NC(=O)CCCC[C@@H](C(=O)N1CC[C@@]3(C1)OC(=O)Nc1ccc(Cl)cc13)c1nc-2c(Cl)[nH]1 (single isomer, unassigned) [Example 6a] | 0.37 | 0.69 |
| COC(=O)Nc1ccc2c(c1)NC(=O)CCCC[C@@H](C(=O)N1CCC[C@@]3(C1)OC(=O)Nc1ccc(Cl)c(F)c13)c1nc-2c(C)[nH]1 (single isomer, unassigned) [Example 12b] | 0.93 | 1.29 |
| COC(=O)Nc1ccc2c(c1)NC(=O)C(C)CCCC(C(=O)N1CCC[C@@]3(C1)OC(=O)Nc1ccc(Cl)cc13)c1cc-2ccn1 (single isomer, unassigned) [Example 15a] | 31.1 | 1.7 |
| COC(=O)Nc1ccc2c(c1)NC(=O)CCCC[C@@H](C(=O)N1CCC[C@@]3(C1)OC(=O)Nc1ccc(Cl)cc13)c1nc-2c(Cl)[nH]1 [Example 7a, methyl ((R,Z)-1^5-chloro-9-((R)-6-chloro-2-oxo-1,2-dihydrospiro[benzo[d][1,3]oxazine-4,3′-piperidine]-1′-carbonyl)-4-oxo-11H-3-aza-1(4,2)-imidazola-2(1,2)-benzenacyclononaphane-2^4-yl)carbamate] | 0.42 | 0.39 |

Further lines, results first:

| Ki [1] [nM] | Ki [2] [nM] | SMILES |
| --- | --- | --- |
| 0.34 | 0.57 | COC(=O)Nc1ccc2c(c1)NC(=O)CCCCC(C(=O)N1CC[C@@]3(C1)OC(=O)Nc1ccc(Cl)c(F)c13)c1nc-2c(Cl)[nH]1 (mixture of isomers) [Example 9, methyl ((Z)-1^5-chloro-9-((R)-6-chloro-5-fluoro-2-oxo-1,2-dihydrospiro[benzo[d][1,3]oxazine-4,3′-pyrrolidine]-1′-carbonyl)-4-oxo-1^1H-3-aza-1(4,2)-imidazola-2(1,2)-benzenacyclononaphane-2^4-yl)carbamate] |
| 0.74 | 1.32 | COC(=O)Nc1ccc2c(c1)NC(=O)[C@H](C)CCCC(C(=O)N1CC[C@@]3(C1)OC(=O)Nc1ccc(Cl)c(F)c13)c1nc-2c(Cl)[nH]1 (mixture of isomers) [Example 11] |
| 16 | 32 | COC(=O)Nc1ccc2c(c1)NC(=O)CCCC[C@H](C(=O)N1CC[C@@]3(C1)OC(=O)Nc1ccc(Cl)cc13)c1nc-2c(Cl)[nH]1 (single isomer, unassigned) [Example 6b] |
| 44.2 | 8.5 | COC(=O)Nc1ccc2c(c1)NC(=O)CCCC[C@@H](C(=O)N1CC[C@@]3(C1)OC(=O)Nc1ccc(Cl)c(F)c13)c1cccc-2n1 (single isomer, unassigned) [Example 23b] |
| 0.62 | 1.42 | CCOC(=O)C1CCCCC(C(=O)N2CCC[C@@]3(C2)OC(=O)Nc2ccc(Cl)c(F)c23)c2nc(c[nH]2)-c2ccc(NC(=O)OC)cc2N1 (single isomer, unassigned) [Example 32b] |
| 2.74 | 0.82 | COC(=O)Nc1ccc2c(c1)NC(=O)CCCC[C@@H](C(=O)N1CCC[C@@]3(C1)OC(=O)Nc1ccc(Cl)cc13)c1nc-2c[nH]1 [Example 3a, methyl ((R,Z)-9-((R)-6-chloro-2-oxo-1,2-dihydrospiro[benzo[d][1,3]oxazine-4,3′-piperidine]-1′-carbonyl)-4-oxo-1^1H-3-aza-1(4,2)-imidazola-2(1,2)-benzenacyclononaphane-2^4-yl)carbamate] |
